Holding throughout (assay type): cell-based, human
The subject of one assay is BJAB and Colo205 cells. Briefly: Transferrin (Tf) endocytosis rate by flow cytometry. The procedure: The cells were then equilibrated on ice for 30 min with Alexa-647-conjugated Tf (^647TF) and uptake at 37° C. was measured by flow cytometry. Each endocytosis rate was derived from the slope of the initial linear phase of a 4 min uptake kinetics plot (a, inset). […] Rates were normalized to the DMSO treated sample (±SEM).
Sedimented cells were resuspended in cold 2% paraformaldehyde/PBS and mean fluorescence intensity of 10,000 cells quantified with a Coulter Epics Elite-ESP flow cytometer (Hialeah, Fla.). Endocytic rates were determined from linear slopes of steady-state internal/surface plots (see, e.g., Wiley, H. S. et. al, J Biol Chem 257, 4222-9 (1982)). For temperature-shift experiments, ice binding incubations were avoided. Instead, cells were preconditioned for 20 min and maintained at 30° C. or 38° C. in binding medium, incubated an additional 0 (control) or 20 min with ^647Tf, chilled on ice for 30 min, and processed for flow cytometry to determine internal/surface ^647Tf ratios.
On the technique in general: A flow cytometer gives signals particle by particle.

The next assay has as its system caspase-3/7. Briefly: Caspase-3/7 activity assay (Apo-One). The note with it: after induction of dynG273D, 38° C. compared to 30° C. The procedure:
The caspase-3/7 assay was performed using Apo-One Homogenous Caspase-3/7 Assay (Promega). […] Lysates were incubated at room temperature for 1 hour before reading in a fluorometer at 485/530 […].

The test system of assay [1] is AP2α, AP1/2β, clathrin heavy chain (CHC), dynamin. Briefly: Immunoblot for cleavage of clathrin-dependent endocytosis machinery and caspases in cell lysates. As to the method: (b) Colo205 cells were treated as in (a) and analyzed by immunoblot for processing of specific components of various types of clathrin-associated endocytic trafficking.
Open arrows indicate cleavage products and solid arrows indicate full-length proteins.
(c) BJAB cells were treated with crosslinked Apo2L/TRAIL and processing of dynamin was determined by immunoblot.
The cells were analyzed by immunoblot for processing of caspase-8, caspase-9, caspase-3, and AP2α.
Human colorectal adenocarcinoma Colo205 cells human B cell lymphoma BJAB cells and human T cell carcinoma Jurkat wild type cells (A3 clone), FADD-deficient (E1) and caspase-8-deficient (I9.3) were cultured in RPMI 1640+10% fetal bovine serum (FBS)+2 mM glutamine+1000 U/ml Penicillin-Streptomycin (Life Technologies). Human cervical carcinoma HeLa-M cells human breast adenocarcinoma MCF7 and human colorectal adenocarcinomas HCT15, HCT8, SW948, Colo320, human fibrosarcoma HT180 (ATCC), HCT116 Bax(−/−), HCT116 Bax(+/−) were grown in 50:50 Dulbecco's modified Eagle's and FK12 medium+10% FBS+1000 U/ml Penicillin-Streptomycin. cDNA clones encoding temperature-sensitive dynamins were the G273D mutant and dominant negative K44A mutant dynamin-1 (Dyn^G273D and Dyn^K44A, respectively). Dyn^G273D was expressed from pHUSH-ProEx, a single retroviral plasmid tetracycline-inducible expression system constructed at Genentech. The cDNA was first cloned into a shuttle plasmid containing a CMV enhancer-promoter sequence with two copies of the tetracycline operator TetO2, then transferred via in vitro phage lamda-based recombination, or Gateway® technology (Invitrogen, Carlsbad), to a Moloney murine leukemia virus backbone vector in which the wild type Tet repressor is driven by a separate β-actin promoter and followed by an internal ribosomal entry sequence and puromycin selection cassette. Dyn^K44A was expressed from the 2-vector tetracycline-inducible retroviral expression system, pRevTet-On/pRev-Tre (Clontech), using serial infections. Retroviral vectors were transfected into Phoenix amphotropic Moloney Murine Leukemia Virus packaging cells using Lipofectamine 2000 […]. Retroviral particles were harvested and used in HeLa-M and BJAB cell infections as described previously (Simpson et al. J Cell Biol 137, 835-45, 1997). Dyn^G273 infected cells were puromycin selected (2-3 μg/ml) for 1-2 weeks and cloned either by manually picking individual HeLa-M colonies or by FACS sorting of resistant BJAB cells (gated for exclusion of propidium iodide) and single cell seeding in 96-well cell culture plates using an EPICS ELITE-ESP equipped with an Autoclone device (Coulter, Hialeah, Fla.). Cell clones were screened for uniformity of doxycycline inducible dynamin-1 expression by immunofluorescence microscopy. Dyn^K44A-infected cells were hygromycin B (400 μg/ml) and G418 (1 mg/ml) selected for 1-2 weeks. Induction with doxycycline (1 μg/ml) was performed at 32° C. for 72 hr as described previously (Damke et al. J Cell Biol 131, 69-80 1995). Vincristine sulfate (#T-117), Adriamycin.HCL (GR-319) were purchased from Biomol, tetracycline-free FBS from Hyclone, Puromycin from Clontech and Doxycyclin from Sigma. zVAD-fmk (asN-benzyloxycarbonyl-Val-Ala-Asp-fluoromethylketone) was obtained from MD Biosciences (#FK-009). […]

The subject of a further assay is DISC. The assay can be described thus: DISC immunoprecipitation. As to the method:
(a) BJAB cells were equilibrated with ^647Tf on ice, incubated for the indicated uptake interval at 37° C. or on ice, then fluorescence quantified by flow cytometry. […] DISC-associated FADD and caspase-8 were visualized by immunoblot. (c, d) Dyn^G273D-transduced BJAB cells were treated with buffer (No Dox) or doxycyline (Dox) and shifted to 38° C. for 20 min to inactivate dynamin. The cells were treated with crosslinked Apo2L/TRAIL for the indicated amounts of time and the DISC was immunoprecipitated. DISC-associated FADD and caspase-8 were visualized by immunoblot (c) or DISC-associated caspase-8 activity was measured as described previously (Sharp et al. J Biol Chem 280, 19401-409, 2005).
BJAB cells (1×10^7 per time point) were treated with Flag-Apo2L/TRAIL cross-linked by anti-FLAG M2 Abs, collected, lysed, immunoprecipitated and the DISC was analyzed as described (see, e.g., Kischkel, F. C. et al., Immunity 12, 611-20 (2000)).

For assay [2], the system named is DynG273D-transduced BJAB cells. Briefly: Apoptosis assay (sub-diploid DNA, DNA fragmentation). The conditions noted are these: induction of dynG273D and temperature-shift to 38° C. As to the method: Cells were stained with propidium iodide after ethanol fixation and RNase treatment and the amount of sub-diploid DNA was analyzed by flow cytometry as previously described, using Expo32 software with an Epics XL.MCL cytometer (Coulter Beckman), (see, e.g., Nicholson, D. W., Cell Death Differ 6, 1028-42 (1999)).

The next assay deals with DR5. The assay can be described thus: Temperature-shift DR5 uptake in DynG273D-transduced BJAB cells. The note with it: doxycyclin-stimulated dynG273D expression, 20 min. As to the method: (a-d) Dyn^G273D-transduced HeLa-M cells were puromycin-selected, doxycycline-induced, pre-incubated for 20 min at the indicated temperature, then incubated another 20 min in the presence of Alexa-488 conjugated Tf (^488Tf). Cells were then processed for immunofluorescence microscopy using a dynamin-1 specific antibody. (e, f) Nontransduced (parental) or clonal Dyn1^G273D-transduced BJAB cells with (+dox) or without (no dox) doxycycline induction were assayed for ^488Tf or ^6475C7 uptake over a 20 min period at 30° C. (white bars) or 38° C. (black bars) by flow cytometry and means plotted (±SD).
Cells were acid stripped or not and quantified by flow cytometry.

Setting [3] is: MCF7 cells, deficient in caspase-3.

One substance from patent US8198033B2, “Methods and materials for observing apoptosis” (Genentech, Inc., priority 2006, dated 2012) can be followed below.

As for “Apo2L/TRAIL: Human recombinant soluble Apo2L/TRAIL in non-tagged (trimeric) or Flag-tagged, antibody-crosslinked versions; SEQ ID NO: 7”, the “Inhibition of the rate of Tf endocytosis” value in the assay on BJAB and Colo205 cells (BJAB and Colo205 cells, pretreatment at 37° C.) was 75-85%. In addition, the “Reduction of Tf endocytosis rate” value with BJAB and Colo205 cells (Colo205 cells, extended exposure for 2 hr at 37° C.) is 5 fold. In the assay with caspase-3/7, the “Ligand-stimulated caspase-3/7 enzymatic activity” value is “substantial increase”. Also, the “Start of depletion of full-length dynamin after stimulation” value in assay [1] (BJAB cells, crosslinked Apo2L/TRAIL) was not above 1 h. Also, the “Cleavage of AP2α isoform C” value in assay [1] (BJAB, Colo205, LS1034 and SW948 cells) is recorded as “did not induce cleavage of isoform C”. For the same substance, the Caspase processing entry in assay [1] (Bax+/- HCT116 cells) was “stimulated processing of both caspase-8 and -3”; in assay [1] (Bax-/- HCT116 cells), “only of caspase-8”. Also, the “Proteolysis of structurally analogous adaptors (AP1α, AP3β and δ, AP4ε, β-COP, Sec23)” value in assay [1] (Colo205 cells, similar timeframe) is on record as “did not induce proteolysis”. Also, in assay [1] (setting [3]), the CHC cleavage result was “did not stimulate CHC cleavage”. Besides, in assay [1] (setting [3]), the “Processing of caspase-8 and AP2α” value was “relatively weak and slow processing of caspase-8 and AP2α”. In addition, the “Processing of AP2α and CHC” value in assay [1] (caspase-8-deficient or FADD-deficient mutant Jurkat cell lines) was “neither ligand stimulated processing of these targets”. Moreover, the “Processing of caspase-8 and -3 and cleavage of AP2α, AP1/2β and CHC” value in assay [1] (several cancer cell lines, susceptible Colo205, BJAB, HeLa-M, not resistant HCT8) is “cleavage of AP2α, AP1/2β, and clathrin heavy-chain (CHC)”. Besides, in assay [1] (susceptible cell lines Colo205, BJAB, HeLa-M), the “Time within which caspase processing and AP2α, AP1/2β, CHC cleavage occurred” value was not above 2 h. Further, in assay [1] (wt Jurkat T cells), the “Cleavage of AP2α and CHC” value is “induced cleavage of AP2α and CHC”. For the same substance, in the assay with DISC (BJAB cells chilled on ice), the “DISC assembly with Tf endocytosis blocked” value was “still recruited FADD and caspase-8 to their respective receptors and processed caspase-8”. The “DISC formation, caspase-8 processing and activity despite endocytosis inhibition” value in the assay with DISC (dynG273D BJAB cells, 38° C.) was “comparable DISC formation, caspase-8 processing, and caspase-8 activity in the DISC”. The “Apoptosis (cells with fragmented DNA)” value in assay [2] is on record as “augmented apoptosis”. The “Ligand-induced DR5 uptake” value in the assay with DR5 (30° C.) was approximately 25%; in the assay with DR5 (38° C.), approximately 10%.
